This is an account of results in PubChem BioAssay AID330 (DTP/NCI, 2004).

Toxic doses and inconclusive results are not listed.

The assay relates to P388 leukemia ip, CD2F1 mice, survival T/C. Briefly: NCI In Vivo Anticancer Drug Screen. Data for tumor model P388 Leukemia (intraperitoneal) in CD2F1 (CDF1) mice. The following applies: endpoint: median survival time, higher = longer survival. The gist of the method:
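Mice carrying the transplanted tumor received test compound or vehicle. Survival was recorded in each group, and the value is the treated-group measurement divided by that of the vehicle-treated control group.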

Where [1] appears, read: dose: 50.0 mg/kg/injection, schedule: Q01DX009 (ip), vehicle: Klucel (hydroxypropylcellulose) (HPC).
Setting [2] is: dose: 100.0 mg/kg/injection, schedule: Q01DX009 (ip), vehicle: Klucel (hydroxypropylcellulose) (HPC).
Where [3] appears, read: dose: 25.0 mg/kg/injection, schedule: Q01DX009 (ip), vehicle: saline.
The mark [4] stands for this setting: dose: 50.0 mg/kg/injection, schedule: Q01DX009 (ip), vehicle: saline.
[5] abbreviates: dose: 100.0 mg/kg/injection, schedule: Q01DX009 (ip), vehicle: saline.
Setting [6] is: dose: 50.0 mg/kg/injection, schedule: Q01DX009 (ip), vehicle: saline with Tween-80.
[7] abbreviates: dose: 100.0 mg/kg/injection, schedule: Q01DX009 (ip), vehicle: saline with Tween-80.
Where [8] appears, read: dose: 200.0 mg/kg/injection, schedule: Q01DX009 (ip), vehicle: saline with Tween-80.

Consider `O=[N+]([O-])c1nccn1CCCO`, for which the T/C reads like this: (dose: 12.5 mg/kg/injection, schedule: Q01DX009 (ip), vehicle: water) 98 % of control; (dose: 25.0 mg/kg/injection, schedule: Q01DX009 (ip), vehicle: water) 97 % of control; (dose: 50.0 mg/kg/injection, schedule: Q01DX009 (ip), vehicle: water) 100 % of control; (dose: 100.0 mg/kg/injection, schedule: Q01DX009 (ip), vehicle: water) 103 % of control; (dose: 200.0 mg/kg/injection, schedule: Q01DX009 (ip), vehicle: water) 100 % of control.
Turning to `CC1(C)CC(OS(C)(=O)=O)CC(C)(C)N1O`, the T/C is 100 % of control under setting [1] and 99 % of control under setting [2].
For `BrCc1cn2ccccc2n1`, the T/C by setting is: under setting [3], 92 % of control; under setting [4], 100 % of control; under setting [5], 104 % of control.
As to `N#CCCn1ncc(=O)[nH]c1=O`, the T/C reads like this: (dose: 50.0 mg/kg/injection, schedule: Q01DX005 (ip), vehicle: water) 101 % of control; (dose: 100.0 mg/kg/injection, schedule: Q01DX005 (ip), vehicle: water) 104 % of control; (dose: 200.0 mg/kg/injection, schedule: Q01DX005 (ip), vehicle: water) 107 % of control.
As to `CC1(C)C(C(=O)/C=C2\Nc3ccccc3C2(C)C)=Nc2ccccc21`, the T/C is, setting by setting: (dose: 60.0 mg/kg/injection, schedule: Q01DX005 (ip), vehicle: Klucel (hydroxypropylcellulose) (HPC)) 102 % of control; (dose: 120.0 mg/kg/injection, schedule: Q01DX005 (ip), vehicle: Klucel (hydroxypropylcellulose) (HPC)) 91 % of control; (dose: 240.0 mg/kg/injection, schedule: Q01DX005 (ip), vehicle: Klucel (hydroxypropylcellulose) (HPC)) 98 % of control.
Turning to `CCC#CC(=O)OC`, the T/C under setting [6] was 94 % of control, the T/C under setting [7] was 103 % of control and the T/C under setting [8] is 114 % of control.
`CCCCCCCCCCCCOC(=O)c1ccc(N)cc1`: the T/C under setting [1] was 98 % of control; the T/C under setting [2] is 101 % of control; the T/C (dose: 200.0 mg/kg/injection, schedule: Q01DX009 (ip), vehicle: Klucel (hydroxypropylcellulose) (HPC)) is 95 % of control.
Take `COC(=O)c1nc(NC#N)[nH]c(=O)c1CCCCCc1cnc(NC#N)nc1`: the T/C is 100 % of control (dose: 60.0 mg/kg/injection, schedule: Q01DX005 (ip), vehicle: saline with Tween-80); 100 % of control (dose: 120.0 mg/kg/injection, schedule: Q01DX005 (ip), vehicle: saline with Tween-80); 97 % of control (dose: 240.0 mg/kg/injection, schedule: Q01DX005 (ip), vehicle: saline with Tween-80).
Consider `O=C1NN=C2CCCCCCCCCCC12Cl` (centres undefined), for which the T/C is 108 % of control under setting [6], 106 % of control under setting [7] and 106 % of control under setting [8].
As to `CC1(C)N=C(N)N=C(N)N1c1ccc(OCCCNC(=O)Nc2cccc(S(=O)(=O)F)c2)c(Cl)c1`, the T/C was 179 % of control under setting [3], 190 % of control under setting [4] and 209 % of control under setting [5].
As to `CCOC(=O)c1ccc2ccc(OC)c(OC)c2c1`, the T/C (dose: 12.5 mg/kg/injection, schedule: Q01DX009 (ip), vehicle: other) is 95 % of control; the T/C (dose: 25.0 mg/kg/injection, schedule: Q01DX009 (ip), vehicle: other) is 97 % of control; the T/C (dose: 50.0 mg/kg/injection, schedule: Q01DX009 (ip), vehicle: other) is 104 % of control; the T/C (dose: 100.0 mg/kg/injection, schedule: Q01DX009 (ip), vehicle: other) was 95 % of control; the T/C (dose: 200.0 mg/kg/injection, schedule: Q01DX009 (ip), vehicle: other) is 104 % of control.
On to `COC(=O)C1=NNc2ccccc2C(OC(C)=O)C1C` (centres undefined), for which the T/C (dose: 100.0 mg/kg/injection, schedule: Q01DX001 (ip), vehicle: saline with Tween-80) is 90 % of control; the T/C (dose: 200.0 mg/kg/injection, schedule: Q01DX001 (ip), vehicle: saline with Tween-80) is 96 % of control; the T/C (dose: 400.0 mg/kg/injection, schedule: Q01DX001 (ip), vehicle: saline with Tween-80) was 97 % of control.
